Ki, inhibition and solubility data for 41 compounds are collected here from patent publication US10336721B2, “Biaryltriazole inhibitors of macrophage migration inhibitory factor” (YALE UNIVERSITY, priority 2015, dated 2019).

Values after ≈ are worked out from the molar mass of the structure shown.

Broadly, the Ki is the dissociation constant of the complex between target and ligand, obtained from inhibition or displacement. High values mean lower affinity, low ones higher affinity. In general, inhibition refers to the relative decrease from the control value, in per cent. Broadly, the solubility is how much of the substance goes into solution per volume.

The target of the first series is human MIF (Homo sapiens (Human), UniProt P14174). The experiment in a line: Inhibition of tautomerase activity of human MIF (HPP substrate). The following applies: MIF tautomerase, HPP substrate, 50 nM MIF. Type of series: biochemical.
Sequence of human MIF (P14174 2-115): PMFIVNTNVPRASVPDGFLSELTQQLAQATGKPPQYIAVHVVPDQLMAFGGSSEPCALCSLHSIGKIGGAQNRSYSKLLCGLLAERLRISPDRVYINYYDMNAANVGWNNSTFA
`COCCOc1ccc2nc(-c3cn(-c4ccc(F)cc4)nn3)ccc2c1` [Example 3, 2-(1-(4-Fluorophenyl)-1H-1,2,3-triazol-4-yl)-6-(2-methoxyethoxy)quinoline] returned a Ki of 8900 nM. `Cc1cc2ccccc2nc1-c1cn(-c2ccc(O)cc2)nn1` [Example 11, 4-(4-(3-Methylquinolin-2-yl)-1H-1,2,3-triazol-1-yl)phenol] yielded an inhibition constant (Ki) of 7300 nM. Turning to `Cc1cc(-c2cn(-c3ccc(O)cc3)nn2)nc2ccccc12` [Example 12, 4-(4-(4-Methylquinolin-2-yl)-1H-1,2,3-triazol-1-yl)phenol], the Ki was 2300 nM.

With `COc1cccc2ccc(-c3cn(-c4ccc(F)cc4)nn3)nc12` [Example 14, 2-(1-(4-Fluorophenyl)-1H-1,2,3-triazol-4-yl)-8-methoxyquinoline], the Ki turned out to be 56000 nM. `COCCOc1cccc2ccc(-c3cn(-c4ccc(F)cc4)nn3)nc12` [Example 15, 2-(1-(4-Fluorophenyl)-1H-1,2,3-triazol-4-yl)-8-(3-methoxyethoxy)quinoline] displayed a Ki of 64000 nM. Compound `Oc1ccc(-n2cc(-c3ccc4cccc(Oc5ccccc5)c4n3)nn2)cc1` [Example 17, 4-(4-(8-Phenoxyquinolin-2-yl)-1H-1,2,3-triazol-1-yl)phenol] had a Ki of 2950 nM. As for `Oc1ccc(-n2cc(-c3ccc4c(Oc5ccccc5)cccc4n3)nn2)cc1` [Example 18, 4-(4-(5-Phenoxyquinolin-2-yl)-1H-1,2,3-triazol-1-yl)phenol], the inhibition constant Ki is 370 nM. Turning to `Oc1ccc(-n2cc(-c3ccc4cc(OCCCN5CCOCC5)ccc4n3)nn2)cc1` [Example 19, 4-(4-(6-(3-Morpholinopropoxy)quinolin-2-yl)-1H-1,2,3-triazol-1-yl)phenol], the affinity corresponds to a Ki of 1950 nM.

For the compound `Cc1cc2cc(OCCCN3CCOCC3)ccc2nc1-c1cn(-c2ccc(O)cc2)nn1` [Example 20, 4-(4-(3-Methyl-6-(3-morpholinopropoxy)quinolin-2-yl)-1H-1,2,3-triazol-1-yl)phenol], the Ki amounted to 3120 nM.

`Fc1ccc(-n2cc(-c3ccc4cc(OCCOCCN5CCOCC5)ccc4n3)nn2)cc1` [Example 23, 4-(2-(2-((2-(1-(4-Fluorophenyl)-1H-1,2,3-triazol-4-yl)quinolin-6-yl)oxy)ethoxy)ethyl)morpholine] showed a Ki of 29600 nM. The same measure, in the same setting: with `COCCOc1ccc(Oc2cccc3nc(-c4cn(-c5ccc(O)cc5)nn4)ccc23)cc1` [Example 24, 4-(4-(5-(4-(2-Methoxyethoxy)phenoxy)quinolin-2-yl)-1H-1,2,3-triazol-1-yl)phenol] the figure was 360 nM; with `COCCOc1cccc(Oc2cccc3nc(-c4cn(-c5ccc(O)c(F)c5)nn4)ccc23)c1` [Example 25, 2-Fluoro-4-(4-(5-(3-(2-methoxyethoxy)phenoxy)quinolin-2-yl)-1H-1,2,3-triazol-1-yl)phenol], 82 nM; with `Oc1ccc(-n2cc(-c3ccc4cccnc4n3)nn2)cc1` [Example 26, 4-(4-(1,8-Naphthyridin-2-yl)-1H-1,2,3-triazol-1-yl)phenol], 1480 nM. As to `Oc1ccc(-n2cc(-c3ccc4ccc(OCCOCCN5CCOCC5)cc4n3)nn2)cc1` [Example 29, 4-(4-(7-(2-(2-Morpholinoethoxy)ethoxy)quinolin-2-yl)-1H-1,2,3-triazol-1-yl)phenol], the Ki was found to be 850 nM. `Oc1ccc(-n2cc(-c3ccc4ccc(OCCOCCN5CCOCC5)cc4n3)nn2)cc1F` [Example 30, 2-Fluoro-4-(4-(7-(2-(2-morpholinoethoxy)ethoxy)quinolin-2-yl)-1H-1,2,3-triazol-1-yl)phenol] came in with a Ki of 290 nM. In turn, `COCCOc1ccc2nc(-c3cn(-c4ccc(O)cc4)nn3)ncc2c1` [Example 31, 4-(4-(6-(2-Methoxyethoxy)quinazolin-2-yl)-1H-1,2,3-triazol-1-yl)phenol] returned a Ki of 2350 nM. Same read-out and setting: with `Oc1c(F)cc(-n2cc(-c3ccc4cc(OCCOCCN5CCOCC5)ccc4n3)nn2)cc1F` [Example 33, 2,6-Difluoro-4-(4-(6-(2-(2-morpholinoethoxy)ethoxy)quinolin-2-yl)-1H-1,2,3-triazol-1-yl)phenol] the figure was 3750 nM.

In the case of `O=C(O)c1ccc(Oc2cccc3nc(-c4cn(-c5ccc(O)c(F)c5)nn4)ccc23)cc1` [Example 35, 4-((2-(1-(3-Fluoro-4-hydroxyphenyl)-1H-1,2,3-triazol-4-yl)quinolin-5-yl)oxy)benzoic acid], the Ki turned out to be 110 nM.

Consider `O=C(O)c1cccc(Oc2cccc3nc(-c4cn(-c5ccc(F)c(F)c5)nn4)ccc23)c1` [Example 36, 3-((2-(1-(3,4-Difluorophenyl)-1H-1,2,3-triazol-4-yl)quinolin-5-yl)oxy)benzoic acid], for which the Ki worked out at 4930 nM. Turning to `NCc1cccc(Oc2cccc3nc(-c4cn(-c5ccc(O)c(F)c5)nn4)ccc23)c1` [Example 37, 4-(4-(5-(3-(Aminomethyl)phenoxy)quinolin-2-yl)-1H-1,2,3-triazol-1-yl)-2-fluorophenol], the Ki was determined as 568 nM. Compound `Oc1ccc(-n2cc(-c3ccc4c(Oc5cccc(OCCOCCN6CCOCC6)c5)cccc4n3)nn2)cc1F` [Example 38, 2-Fluoro-4-(4-(5-(3-(2-(2-morpholinoethoxy)ethoxy)phenoxy)quinolin-2-yl)-1H-1,2,3-triazol-1-yl)phenol] yielded a Ki of 128 nM. Compared with the last compound, the Ki is about 4.4-fold lower. In the case of `O=C(O)c1ccc(Oc2cccc3ccc(-c4cn(-c5ccc(O)c(F)c5)nn4)nc23)cc1` [Example 39, 4-((2-(1-(3-Fluoro-4-hydroxyphenyl)-1H-1,2,3-triazol-4-yl)quinolin-8-yl)oxy)benzoic acid], the Ki is 296 nM. The same measure, in the same setting: with `O=C(O)c1cccc(Oc2cccc3ccc(-c4cn(-c5ccc(O)c(F)c5)nn4)nc23)c1` [Example 40, 3-((2-(1-(3-Fluoro-4-hydroxyphenyl)-1H-1,2,3-triazol-4-yl)quinolin-8-yl)oxy)benzoic acid] the figure was 112 nM; with `O=C(O)COc1ccc2ccc(-c3cn(-c4ccc(O)c(F)c4)nn3)nc2c1` [Example 41, 2-((2-(1-(3-Fluoro-4-hydroxyphenyl)-1H-1,2,3-triazol-4-yl)quinolin-7-yl)oxy)acetic acid], 2240 nM; with `O=C(O)CCCOc1ccc2ccc(-c3cn(-c4ccc(O)c(F)c4)nn3)nc2c1` [Example 42, 4-((2-(1-(3-Fluoro-4-hydroxyphenyl)-1H-1,2,3-triazol-4-yl)quinolin-7-yl)oxy)butanoic acid], 43 nM.

The same series, now with this note: read-out: % inhibition at 10 μM.
Regarding `COCCOc1ccc(-c2cn(-c3ccc(Cl)cc3)nn2)nc1` [Example 4, 2-(1-(4-Chlorophenyl)-1H-1,2,3-triazol-4-yl)-5-(2-methoxyethoxy)pyridine], the inhibition at 10 µM came out at 3%. Consider `COCCOc1ccc2nc(-c3cn(-c4ccc(N)cc4)nn3)ccc2c1` [Example 5, 4-(4-(6-(2-Methoxyethoxy)quinolin-2-yl)-1H-1,2,3-triazol-1-yl)aniline], for which the inhibition at 10 µM was found to be 13%. With `COCCOc1ccc2nc(-c3cn(-c4ccc(OC)cc4)nn3)ccc2c1` [Example 6, 6-(2-Methoxyethoxy)-2-(1-(4-methoxyphenyl)-1H-1,2,3-triazol-4-yl)quinoline], the inhibition at 10 µM is 0%.

`COCCOc1ccc2nc(-c3cn(-c4ccc(C#N)cc4)nn3)ccc2c1` [Example 7, 4-(4-(6-(2-Methoxyethoxy)quinolin-2-yl)-1H-1,2,3-triazol-1-yl)benzonitrile]: the inhibition at 10 µM was 8%. On to `COCCOc1ccc2nc(-c3cn(-c4ccc(C(N)=O)cc4)nn3)ccc2c1` [Example 8, 4-(4-(6-(2-Methoxyethoxy)quinolin-2-yl)-1H-1,2,3-triazol-1-yl)benzamide], for which the inhibition at 10 µM is 0%.

In the case of `COCCOc1ccc2nc(-c3cn(-c4ccc(O)c(C)c4)nn3)ccc2c1` [Example 9, 4-(4-(6-(2-Methoxyethoxy)quinolin-2-yl)-1H-1,2,3-triazol-1-yl)-2-methylphenol], the inhibition at 10 µM came to 15%. On to `COCCOc1ccc2nc(-c3cn(-c4ccc(O)c(OC)c4)nn3)ccc2c1` [Example 10, 2-Methoxy-4-(4-(6-(2-methoxyethoxy)quinolin-2-yl)-1H-1,2,3-triazol-1-yl)phenol], for which the inhibition at 10 µM turned out to be 8%. Take `Oc1ccc(-n2cc(-c3ccc4cccc(Cl)c4n3)nn2)cc1` [Example 13, 4-(4-(8-Chloroquinolin-2-yl)-1H-1,2,3-triazol-1-yl)phenol]: the inhibition at 10 µM came to 16%. In the case of `COc1ccc(-c2cccc3ccc(-c4cn(-c5ccc(O)cc5)nn4)nc23)cc1` [Example 16, 4-(4-(8-(4-Methoxyphenyl)quinolin-2-yl)-1H-1,2,3-triazol-1-yl)phenol], the inhibition at 10 µM turned out to be 21%. Turning to `Clc1ccc(-n2cc(-c3ccc4cccnc4n3)nn2)cc1` [Example 27, 2-(1-(4-Chlorophenyl)-1H-1,2,3-triazol-4-yl)-1,8-naphthyridine], the inhibition at 10 µM was found to be 9%.

Test system in another series: not listed separately
The experiment in a line: Aqueous solubility. The series is classed as physicochemical. Conditions: aqueous solvent (not further specified), μg compound/mL solvent.
`Oc1ccc(-n2cc(-c3ccc4ccccc4n3)nn2)cc1` [Example 1, 4-(4-(Quinolin-2-yl)-1H-1,2,3-triazol-1-yl)phenol]: the solubility amounted to 2.2 µg/mL (≈ 7.63 µM).

`COCCOc1ccc2nc(-c3cn(-c4ccc(O)cc4)nn3)ccc2c1` [Example 2, 4-(4-(6-(2-Methoxyethoxy)quinolin-2-yl)-1H-1,2,3-triazol-1-yl)phenol] registered a solubility of 3.6 µg/mL (≈ 9.93 µM). With `Oc1ccc(-n2cc(-c3ccc4cc(OCCOCCN5CCOCC5)ccc4n3)nn2)cc1` [Example 21, 4-(4-(6-(2-(2-Morpholinoethoxy)ethoxy)quinolin-2-yl)-1H-1,2,3-triazol-1-yl)phenol], the solubility was 48.5 µg/mL (≈ 105 µM).

Take `Oc1ccc(-n2cc(-c3ccc4cc(OCCOCCN5CCOCC5)ccc4n3)nn2)cc1F` [Example 22, 2-Fluoro-4-(4-(6-(2-(2-morpholinoethoxy)ethoxy)quinolin-2-yl)-1H-1,2,3-triazol-1-yl)phenol]: the concentration in solution (solubility) was 27.2 µg/mL (≈ 56.7 µM).

For `NCCOCCOc1ccc2nc(-c3cn(-c4ccc(O)cc4)nn3)ccc2c1` [Example 28, 4-(4-(6-(2-(2-Aminoethoxy)ethoxy)quinolin-2-yl)-1H-1,2,3-triazol-1-yl)phenol], the concentration in solution (solubility) was 13.9 µg/mL (≈ 35.5 µM). On to `O=C(O)c1cccc(Oc2cccc3nc(-c4cn(-c5ccc(O)c(F)c5)nn4)ccc23)c1` [Example 32, 3-((2-(1-(3-Fluoro-4-hydroxyphenyl)-1H-1,2,3-triazol-4-yl)quinolin-5-yl)oxy)benzoic acid], for which the solubility is 47.2 µg/mL (≈ 107 µM).
